The values below come from article PMC10606064, “2-Aminothiazole-Flavonoid Hybrid Derivatives Binding to Tau Protein and Responsible for Antitumor Activity in Glioblastoma” (International Journal of Molecular Sciences, 2023).

One experiment deals with U251 glioblastoma cells. Nature of the experiment: MTT cell viability assay, U251. It is filed as cell-based. To be noted: Homo sapiens, U-251, U251, 72 h, mean ± SEM, read-out: IC50 (metabolic activity). On the procedure:
(§1) Cells harvested from sub-confluent monolayers were seeded at 15,000 cells per mL in a 96-well microtiter plate (Cambridge Technology, Labège, France) and cultured for 24 h under standard conditions. Standard medium was then replaced by fresh medium containing no drugs or compounds at different concentrations. The surviving cells were quantified after 72 h by the MTT assay, according to the manufacturer’s instructions. Briefly, 20 µL of 3-(4,5-diMethylThiazol-2-yl)-2,5diphenyl Tetrazolium bromide (MTT) solution at 5 mg.mL^−1 was added to cells for 3 h at 37 °C. The supernatant was discarded and replaced by 100 µL of dimethyl sulfoxide to dissolve formazan crystals. The absorbance was then read at 600 nm by spectrophotometry. For all concentrations of a given compound, cell viability was expressed as the percentage of the ratio between the mean absorbance of treated cells and the mean absorbance of untreated cells. Three independent experiments were performed, and the data were expressed as percentage of survival (using the untreated cells as 100%) and subjected to statistical analysis (n = 3). The IC50 was calculated using the Chou and Talalay method.

Another experiment deals with T98G glioblastoma cells. Nature of the experiment: MTT cell viability assay, T98G. Conditions: Homo sapiens, 72 h, mean ± SEM, read-out: IC50 (metabolic activity). The format is cell-based. On the procedure:
as §1

Another experiment deals with T1, mature Tau aggregates (Homo sapiens, UniProt P10636).
T1 construct: The full-length human Tau (hTau40) was expressed in a transformed E. coli BL21 (DE3) strain; made in house; host or cells: E. coli BL21 (DE3)
T1 sequence (P10636 1-441 isoform P10636-8): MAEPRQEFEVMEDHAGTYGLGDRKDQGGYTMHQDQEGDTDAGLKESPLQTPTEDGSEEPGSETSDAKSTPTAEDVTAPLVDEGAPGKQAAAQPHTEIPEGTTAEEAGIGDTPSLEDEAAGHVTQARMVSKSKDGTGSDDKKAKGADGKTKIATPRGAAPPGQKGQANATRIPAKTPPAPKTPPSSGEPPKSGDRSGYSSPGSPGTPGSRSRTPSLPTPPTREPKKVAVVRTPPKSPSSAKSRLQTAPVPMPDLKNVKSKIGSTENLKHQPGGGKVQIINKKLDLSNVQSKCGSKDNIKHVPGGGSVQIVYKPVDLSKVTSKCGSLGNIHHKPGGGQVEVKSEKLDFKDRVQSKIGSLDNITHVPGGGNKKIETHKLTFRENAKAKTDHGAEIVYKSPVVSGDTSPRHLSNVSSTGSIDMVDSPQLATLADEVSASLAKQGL
The experiment in a line: Dissolution of preformed (mature) Tau aggregates, ThS fluorescence. The format is biochemical. Conditions: 10, 30 and 100 µM added to ThS-labelled aggregates after 8 h, 37 °C. On the procedure: Moreover, we performed a qualitative study of the ability of QCT and compounds 1, 5, and 9 to dissolve preformed Tau aggregates (Figure 3).
Eight-hour time courses were performed with ThS to monitor heparin-induced Tau aggregation by spectrofluorometry at 520 nm (37 °C), then 10, 30, and 100 µM of compounds (curves b–d) were added to the ThS-labelled Tau aggregates. A control was performed without compound (curve a).

For experiment [1], the system named is Caco-2 colon adenocarcinoma cells. Nature of the experiment: MTT cell viability assay, Caco-2. It is filed as cell-based. To be noted: Homo sapiens, Caco-2 (not expressing Tau), 72 h, mean ± SEM, read-out: IC50 (metabolic activity). On the procedure: as §1
Experiment [2] concerns the target T2, Tau protein (full-length human Tau, hTau40) (Homo sapiens, UniProt P10636).
T2 construct: The full-length human Tau (hTau40) was expressed in a transformed E. coli BL21 (DE3) strain; made in house; host or cells: E. coli BL21 (DE3)
Nature of the experiment: Tau intrinsic fluorescence quenching, modified Stern–Volmer binding parameters. To be noted: 5 µM Tau, buffer B pH 6.8, mean ± SD; for Kd: read-out: Equilibrium Binding Constants to Tau, KD. As to the method: Fluorescence measurements were performed with a Horiba Jobin Yvon FluoroMax-3 spectrofluorometer. […] For experiments, the excitation wavelength was fixed at 275 nm, and the emission spectra were recorded between 280 nm and 500 nm at room temperature. The inner filter effects were corrected according to Lakowicz as follows:F = Fobs × exp{(Aem + Aex)/2}(2) where Fobs and F are the observed and corrected fluorescence values at the emission wavelength of 303 nm. Aex and Aem are the absorptions at the excitation and emission wavelengths, respectively, calculated with A = ε.l.C, in which ε is the extinction coefficient of Tau, l is the path length of cuvette, and C is Tau concentration.
The total fluorescence in the absence of quencher (F0) is given by:F0 = F0a + F0b(4) where 0 refers to the fluorescence intensity in the absence of quencher.
In the presence of quencher, we defined fa as the fraction of the initial fluorescence of Tau accessible to compounds:fa = F0a/(F0a + F0b)(5)
Therefore, the intensity of the accessible fraction (fa) is decreased according to the Stern–Volmer equation, whereas the buried fraction is not quenched, as given by:F = {F0a/(1 + K.[Q])} + F0b(6)
Then, subtraction of Equations (6) and (4) yields:ΔF = F0 − F = F0a × {K.[Q]/(1 + K.[Q])}(7)
At last, inversion of Equation (7) followed by division into Equation (4) yields:F0/ΔF = {1/(fa.K.[Q])} + 1/fa(8)
We applied this modified form of the Stern–Volmer equation to graphically determine the values of fa and K. For our experiments, we plotted F0/ΔF against 1/[Q], then we determined the fa value at the point of intersection with the y-axis, while the slope represented (faK)^−1.

Experiment [3] addresses T3, full-length human Tau (hTau40) (Homo sapiens, UniProt P10636).
T3 construct: The full-length human Tau (hTau40) was expressed in a transformed E. coli BL21 (DE3) strain; made in house; host or cells: E. coli BL21 (DE3)
The experiment in a line: Tau oligomerization inhibition assay (heparin-induced, thioflavin S fluorescence). It is filed as biochemical. As to the method: Tau oligomerization inhibition assay was performed at 37 °C in 96-well plates by monitoring thioflavin-S fluorescence at 520 nm after excitation at 440 nm using a microplate reader (POLARstar Omega system, BMG Labtech, Paris, France). The Tau oligomerization process was induced by heparin. […] The plates were shaken at 200 rpm for 10 s before each measurement. The real value of fluorescence at the plateau was determined using SciDAVis v1.23 software. Data were fitted to the SciDAVis built-in ExpGrowth equation by means of nonlinear least-squares regression analysis. Y = Y0 + A × exp(x/t)(1)
The unscaled Levenberg–Marquardt algorithm was used, and initial values were given to Y0, A, and t. The final Y0 value of the model corresponds to the plateau value. The plateau values were then used to calculate the Tau oligomerization inhibition percentage. The IC50 for each compound was calculated from the scatter plot of Tau oligomerization inhibition (in percentage) as a function of log10 of compound concentration. The IC50 value (in µM) thus corresponds to ten raised to the power of […].

In another experiment the test system is U138 glioblastoma cells. The experiment in a line: MTT cell viability assay, U138. It is filed as cell-based. Conditions: Homo sapiens, U138, 72 h, mean ± SEM, read-out: IC50 (metabolic activity). On the procedure:
as §1
Background: Tetrazolium dyes change colour on reduction, which living cells bring about.

Experiment [4] relates to GBM cells (U87, U251, U138, and T98G). The experiment in a line: MTT assay across the Tau-expressing GBM cell models. It is filed as cell-based, human. To be noted: Homo sapiens; U87, U251, U138, T98G; 72 h MTT; read-out: IC50 among the Tau-expressing GBM cell models. On the procedure:
as §1

Another experiment deals with U87 glioblastoma cells. Nature of the experiment: MTT cell viability assay, U87. It is filed as cell-based, human. To be noted: Homo sapiens; U87, 72 h, MTT; mean ± SEM; read-out: IC50 (metabolic activity). On the procedure:
as §1

The subject of the next experiment is R3 peptide. On the set-up: method as in PMID 34743390. Conditions: 10 µM, AFM analysis; cited from earlier work.

Structures are written as SMILES. Where two headings read alike, the source gives them in different places.

T2 sequence (P10636 1-441 isoform P10636-8): as above
T3 sequence (P10636 1-441 isoform P10636-8): as above

The IC50 is the midpoint of a concentration-inhibition curve. For orientation: Kd means the equilibrium constant for the complex coming apart. Consider `Nc1nc(-c2ccc3oc(-c4ccccc4)cc(=O)c3c2)cs1` [Compound 1], for which the IC50 in the experiment on U251 glioblastoma cells was 6.7 ± 2.2 µM; in the experiment with T98G glioblastoma cells it was 4.2 ± 0.7 µM; in experiment [1], 33.2 ± 13.3 µM; in experiment [3] (2 µM Tau, heparin-induced, ThS, buffer A pH 6.9, 25 °C per table footnote (37 °C in method), mean ± SD, read-out: Inhibition of Aggregation IC50), 92 ± 9.6 µM; in the experiment with U138 glioblastoma cells, 6.4 ± 1.3 µM; in [4] it was 4.2 to 22.4 µM. Further, the IC50 in the experiment with U87 glioblastoma cells is 22.4 ± 5.2 µM. Also, the “Ability to dissolve mature (preformed) Tau aggregates” value on mature Tau aggregates was “able to dissolve mature Tau aggregates”. Also, the “Equilibrium Binding Constants to Tau, fA (Tyr accessible fraction)” value in experiment [2] stood at 0.39 ± 0.08. Also, the Kd in experiment [2] was determined as 7 ± 2.3 µM.

With `O=c1c(O)c(-c2ccc(O)c(O)c2)oc2cc(O)cc(O)c12` [QCT, quercetin, reference compound], the IC50 in the experiment on U251 glioblastoma cells is above 100 µM; with T98G glioblastoma cells, above 100 µM; in experiment [1] it was above 100 µM; in experiment [3], 17.3 ± 0.6 µM; with U138 glioblastoma cells, above 100 µM; with U87 glioblastoma cells, above 100 µM. For the same molecule, the “Ability to dissolve mature (preformed) Tau aggregates” value at mature Tau aggregates is listed as “able to dissolve mature Tau aggregates”. In the experiment with R3 peptide, the R3 peptide fibrillation entry is listed as “abrogated R3 peptide fibrillation”. Also, the “Equilibrium Binding Constants to Tau, fA (Tyr accessible fraction)” value in experiment [2] came to 0.12 ± 0.04. The Kd in experiment [2] came out at 2.4 ± 0.6 µM.
